Test results reported in patent US7988972B2, “Immunoreactive peptides from Epstein-Barr virus” (Ortho-Clinical Diagnostics, Inc., priority 1993, dated 2011).

Columns and labels:
[1] = tested on: EA reactive antibody (IgG) in infectious mononucleosis (IM) sera; assay: ELISA, EA peptides with EBV infectious mononucleosis sera; assay type: binding, human; details: for ELISA result, peptides with and without extensions: EA positive EBV IM acute serum; for O.D.: 420 nm; for 50.1 ELISA (OD reading): IFA EA <10, OD >0.2 positive
Description: ELISA. The ELISA for measuring specific antibodies to p17, p50 or to the synthetic peptides was performed as previously described in detail (Luka et al., J. Immunol. Methods, 67:145-156, 1984). Aliquots of different antigen concentrations were diluted in 0.5M Na2CO3 buffer, pH 9.5, added to wells in polystyrene microtiter plates (Linbro) and the plates incubated overnight at 4° C. Following this incubation period, the plates were washed 5× with Tris-HCl, pH 7.4, containing 0.05% Tween 20, 50 mM NaCl and 100 mg per liter albumin (Sigma) and dried for 20 minutes at room temperature. The plates were screened with different anti-EA-R or EA-D antibody positive human sera and the monoclonal antibody to p17 or p50 to identify the optimal concentration of antigen to be used in the serological studies. Alkaline-phosphatase-labelled goat anti-human IgG (Sigma) or goat anti-mouse IgG (Sigma) was used as the indicator system.
For the testing of human sera for antibodies to native p17, p50 or to the synthetic peptides, sera were diluted 1:10 in ELISA buffer, added in 0.1 ml volumes to wells coated with optimal concentrations of antigen and the plates were incubated for 60 minutes at room temperature. After 4 washes with ELISA buffer, 100 μl of alkaline phosphatase-labelled goat anti-human IgG in ELISA buffer were added to each well and the plates were incubated at room temperature for 1 hour. Following four more washes in buffer, the enzyme reaction was performed by dissolving 1 mg per ml of Sigma alkaline phosphatase substrate in 1M diethanolamine buffer, pH 10.4, containing 1 mM MgCl2 and 0.1 mM ZnCl2, and 100 μl of the mixture was then added to each well. The reaction was allowed to proceed for 30 minutes at 37° C. and then the plates were screened directly with a microplate reader, TITERTEK MULTISKAN MC (Flow), at 420 nm. Readings above 0.1 which was 2× the background noted with antibody-negative sera were considered positive reactions.
When the entire 50.10 peptide was tested with 1M sera, 24/32 or 75% of the sera contained EA-D reactive antibody (IgG) (Table 4).
Serological reactivity of EA peptides p17.1 and p50.1 which contained additional amino acids on their amino and carboxy termini was tested on EBV IM acute sera which was EA positive. The ELISA results shown in Table 5 indicate that the additional amino acids improved reactivity for both EA peptides.
Immunofluorescence assays (IFA) were performed as described by Henle, et al. (Int. J. Cancer, 8:272-282, 1971). Western blot analysis was done by methods commonly used in the art (See for example, Coligan, et al., Current Protocols in Immunology, Wiley Interscience, 1991, Unit 12). Samples of EBV-infected cell lysates (P3HR-1) were tested with human whole antiserum from positive humans (Pearson, et al., Virology, 160:151-161, 1987). A comparison was made between EA serology by IFA, using the EA-D 50.1 peptide antisera, and ELISA serology using 50.1 peptide (see Example 2).

[2] = tested on: antibodies to peptides 50.10 (EA-D) and 17.1 (EA-R) in sequential sera; assay: IgG ELISA on sequential sera of a patient with acute infectious mononucleosis; assay type: binding, human; details: sera at 1.20 dilution, (+) >0.25
From the text: The early antigen D-R transition was followed in a patient during a course of acute infectious mononucleosis. Antibodies to peptides 50.10 (EA-D) and 17.1 (EA-R) were detected by ELISAs on specimens collected over a six month duration. […] Therefore, the peptides of the invention are useful for monitoring the course of EBV-associated disease in a patient.

[3] = 32 IM sera, values >0.5 positive (O.D. 420 nm)

In the case of “KQKHPKKVKQAFNPL [p50.10, synthetic peptide from 50 Kd early antigen (EA-D) region of EBV]”, the “% Positive” value [1, 3] is reported as 75%, the “IM sera positive / tested” value [1, 3] is reported as 24/32 and the “ELISA result, peptides with and without extensions” value ([1]; sample no. 2241) is reported as 0.673. For the same sequence, the “ELISA result, peptides with and without extensions” value ([1]; sample no. 12498) was 0.342, the “ELISA result, peptides with and without extensions” value ([1]; sample no. 12836) was 0.722 and the SCORE ([1]; IM serum sample no. 2241) was “+ (Values >0.5 were considered positive (O.D. readings at 420 nm).)”. For the same sequence, the SCORE ([1]; IM serum sample no. 11984) was “+ (Values >0.5 were considered positive (O.D. readings at 420 nm).)”, the O.D. ([1]; IM serum sample no. 11984) was 0.722 and the SCORE ([1]; IM serum sample no. 12005) was “− (Values >0.5 were considered positive (O.D. readings at 420 nm).)”. For the same sequence, the O.D. ([1]; IM serum sample no. 12005) was 0.441, the SCORE ([1]; IM serum sample no. 12288) was “+ (Values >0.5 were considered positive (O.D. readings at 420 nm).)” and the O.D. ([1]; IM serum sample no. 12288) was 0.610. The SCORE ([1]; IM serum sample no. 12407) was “+ (Values >0.5 were considered positive (O.D. readings at 420 nm).)”, the O.D. ([1]; IM serum sample no. 12407) was 0.751 and the SCORE ([1]; IM serum sample no. 12409) was “+ (Values >0.5 were considered positive (O.D. readings at 420 nm).)”. For the same sequence, the O.D. ([1]; IM serum sample no. 12409) was 0.609, the SCORE ([1]; IM serum sample no. 12418) was “− (Values >0.5 were considered positive (O.D. readings at 420 nm).)” and the O.D. ([1]; IM serum sample no. 12418) was 0.382. The SCORE ([1]; IM serum sample no. 12498) was “− (Values >0.5 were considered positive (O.D. readings at 420 nm).)”, the SCORE ([1]; IM serum sample no. 12502) was “− (Values >0.5 were considered positive (O.D. readings at 420 nm).)” and the O.D. ([1]; IM serum sample no. 12502) was 0.270. For the same sequence, the SCORE ([1]; IM serum sample no. 12587) was “+ (Values >0.5 were considered positive (O.D. readings at 420 nm).)”, the O.D. ([1]; IM serum sample no. 12587) was 0.890 and the SCORE ([1]; IM serum sample no. 12600) was “− (Values >0.5 were considered positive (O.D. readings at 420 nm).)”. The O.D. ([1]; IM serum sample no. 12600) was 0.323, the SCORE ([1]; IM serum sample no. 12611) was “− (Values >0.5 were considered positive (O.D. readings at 420 nm).)” and the O.D. ([1]; IM serum sample no. 12611) was 0.436. The SCORE ([1]; IM serum sample no. 12801) was “+ (Values >0.5 were considered positive (O.D. readings at 420 nm).)”, the O.D. ([1]; IM serum sample no. 12801) was 0.605 and the SCORE ([1]; IM serum sample no. 12828) was “+ (Values >0.5 were considered positive (O.D. readings at 420 nm).)”. For the same sequence, the O.D. ([1]; IM serum sample no. 12828) was 0.895, the SCORE ([1]; IM serum sample no. 12829) was “+ (Values >0.5 were considered positive (O.D. readings at 420 nm).)” and the O.D. ([1]; IM serum sample no. 12829) was 0.652. The SCORE ([1]; IM serum sample no. 12836) was “+ (Values >0.5 were considered positive (O.D. readings at 420 nm).)”, the SCORE ([1]; IM serum sample no. 12837) was “+ (Values >0.5 were considered positive (O.D. readings at 420 nm).)” and the O.D. ([1]; IM serum sample no. 12837) was 1.491. The SCORE ([1]; IM serum sample no. 12840) was “+ (Values >0.5 were considered positive (O.D. readings at 420 nm).)”, the O.D. ([1]; IM serum sample no. 12840) was 0.723 and the SCORE ([1]; IM serum sample no. 12888) was “+ (Values >0.5 were considered positive (O.D. readings at 420 nm).)”. The O.D. ([1]; IM serum sample no. 12888) was 0.847, the SCORE ([1]; IM serum sample no. 12889) was “+ (Values >0.5 were considered positive (O.D. readings at 420 nm).)” and the O.D. ([1]; IM serum sample no. 12889) was 1.184. The SCORE ([1]; IM serum sample no. 12892) was “+ (Values >0.5 were considered positive (O.D. readings at 420 nm).)”, the O.D. ([1]; IM serum sample no. 12892) was 0.634 and the SCORE ([1]; IM serum sample no. 12893) was “+ (Values >0.5 were considered positive (O.D. readings at 420 nm).)”. For the same sequence, the O.D. ([1]; IM serum sample no. 12893) was 0.626, the SCORE ([1]; IM serum sample no. 12899) was “+ (Values >0.5 were considered positive (O.D. readings at 420 nm).)” and the O.D. ([1]; IM serum sample no. 12899) was 0.895. For the same sequence, the SCORE ([1]; IM serum sample no. 12900) was “− (Values >0.5 were considered positive (O.D. readings at 420 nm).)”, the O.D. ([1]; IM serum sample no. 12900) was 0.498 and the SCORE ([1]; IM serum sample no. 13075) was “− (Values >0.5 were considered positive (O.D. readings at 420 nm).)”. The O.D. ([1]; IM serum sample no. 13075) was 0.252, the SCORE ([1]; IM serum sample no. 13419) was “+ (Values >0.5 were considered positive (O.D. readings at 420 nm).)” and the O.D. ([1]; IM serum sample no. 13419) was 0.678. For the same sequence, the SCORE ([1]; IM serum sample no. 13637) was “+ (Values >0.5 were considered positive (O.D. readings at 420 nm).)”, the O.D. ([1]; IM serum sample no. 13637) was 0.886 and the SCORE ([1]; IM serum sample no. 13769) was “+ (Values >0.5 were considered positive (O.D. readings at 420 nm).)”. The O.D. ([1]; IM serum sample no. 13769) was 1.307, the SCORE ([1]; IM serum sample no. 13929) was “+ (Values >0.5 were considered positive (O.D. readings at 420 nm).)” and the O.D. ([1]; IM serum sample no. 13929) was 1.031. The SCORE ([1]; IM serum sample no. 14043) was “+ (Values >0.5 were considered positive (O.D. readings at 420 nm).)”, the O.D. ([1]; IM serum sample no. 14043) was 0.631 and the SCORE ([1]; IM serum sample no. 14128) was “+ (Values >0.5 were considered positive (O.D. readings at 420 nm).)”. For the same sequence, the O.D. ([1]; IM serum sample no. 14128) was 0.693, the SCORE ([1]; IM serum sample no. 14131) was “+ (Values >0.5 were considered positive (O.D. readings at 420 nm).)” and the O.D. ([1]; IM serum sample no. 14131) was 0.530. For the same sequence, the “50.1 ELISA (OD reading)” value ([1]; acute EBV IM sample 12502, diluted 1:10, EA-D Western blot positive) was 0.409, the “50.1 ELISA (OD reading)” value ([1]; acute EBV IM sample 12840, diluted 1:10, EA-D Western blot positive) was 0.257 and the “50.1 ELISA (OD reading)” value ([1]; acute EBV IM sample 13769, diluted 1:10, EA-D Western blot positive) was 1.034. The “IgG ELISA O.D. reading” value ([2]; serum no. 9817, May 26, 1988) was 0.104, the “IgG ELISA O.D. reading” value ([2]; serum no. 9820, May 31, 1988) was 0.094 and the “IgG ELISA O.D. reading” value ([2]; serum no. 9829, Jun. 07, 1988) was 0.120. For the same sequence, the “IgG ELISA O.D. reading” value ([2]; serum no. 9941, Jun. 20, 1988) was 0.147, the “IgG ELISA O.D. reading” value ([2]; serum no. 9983, Jun. 27, 1988) was 0.817 and the “IgG ELISA O.D. reading” value ([2]; serum no. 10064, Jul. 18, 1988) was 0.821. The “IgG ELISA O.D. reading” value ([2]; serum no. 10237, Aug. 29, 1988) was 0.561, the “IgG ELISA O.D. reading” value ([2]; serum no. 10271, Sep. 20, 1988) was 0.100 and the “IgG ELISA O.D. reading” value ([2]; serum no. 10488, Oct. 21, 1988) was 0.095. For the same sequence, the “IgG ELISA O.D. reading” value ([2]; serum no. 10546, Nov. 15, 1988) was 0.140.
